The values that follow come from patent US20240358865A1, “QUINOLINYL AND PRIDINYL CONTAINING COMPOUNDS TARGETING ON ALPHA-SYNUCLEIN FOR NEUROLOGICAL DISEASES” (Washington University, priority 2023, published 2024).

Series [1] deals with alpha-synuclein fibrils (Homo sapiens, UniProt P37840). Kind of series: Competitive binding to alpha-synuclein fibrils vs [3H]BF2846 (site 9). As to conditions: for Ki / Ki (nM), in a-syn fibrils v.s. [3H]BF2846: alpha-synuclein fibrils, radioligand [3H]BF2846, binding site 9; for Ki: read-out: Ki (nM), in a-syn fibrils v.s. [3H]BF2846; for max % inh_site9: maximal inhibition of [3H]BF2846 binding to alpha-synuclein fibrils.

Series [2] addresses AD brain tissue (Homo sapiens, UniProt P05067). In words: Competitive binding in AD brain tissue vs [3H]PiB. The conditions noted are these: for Ki: AD brain tissue, radioligand [3H]PiB; for max % Inh_PiB: maximal inhibition of [3H]PiB binding in AD brain tissue. On the procedure:
The binding potency for Abeta was determined using [^3H]PIB for these new compounds (FIG. 5B).
If the Ki value is smaller, these compounds are potent for AD brain tissue binding and are not selective for alpha-synuclein over abeta, or PD over AD.

The target in series [3] is T1, α-synuclein fibrils amplified from PD tissue (Homo sapiens, UniProt P37840).
T1 construct: from tissue; host or cells: fibrils amplified from PD tissue (Banner amplified fibrils are mentioned)
In words: Direct radioligand (homologous competitive) binding assay. The conditions noted are these: read-out: binding affinity for α-synuclein fibrils. An excerpt:
(§1) The radiosynthesis of [^18F]TZ83-41 was accomplished by a two-step procedure with [^18F]fluoroethyl ptoluenesulfonate as a prosthetic group, followed by O-alkylation to the quinolinyl-containing phenol group. [^18F]TZ80-156 was synthesized starting from the allylic bromide precursor via nucleophilic halogen exchange (halex) reaction with [^18F]fluoride, followed by deprotection of the N-Boc amine with trifluoroacetic acid. Homologous competitive binding assays with α-synuclein fibrils amplified from PD tissue were used to determine the direct binding affinity of the two radioligands. The biodistribution study was performed in male Sprague Dawley (SD) rats at four time points (5, 30, 60 min and 120 min) after intravenous injection of the radiotracer. The uptake of radioactivity was calculated as percentage injected dose per gram (% ID/gram). Both radiotracers were evaluated with microPET imaging using a Focus 220 microPET scanner to collect dynamic scans after intravenous injection into male macaques (NHP) (FIGS. 1A-1C).
(§2) The radioligands [^18F]TZ83-41 and [^18F]TZ80-156 were successfully produced in 17±3% (n=2) and 25±5% (n=2) radiochemical yield (RCY) respectively with high molar activity (>37 GBq/μmol) and high radiochemical purity (>99%), at the end of synthesis (EOS).

In series [4] the test system is Alzheimer's disease brain tissue homogenate. In words: Direct radioligand binding to Alzheimer's disease brain tissue homogenate.
Text: as §2

A short description of series [5]: MicroPET imaging of the macaque (NHP) brain. Type of series: in vivo.
Text: as §1

Series [6] is described as follows: Biodistribution study in rats. Type of series: in vivo, Sprague Dawley (SD) rats.
Text: as §1

A short description of series [7]: PET studies in the brains of nonhuman primates (Example 3). The format is in vivo. The source says:
A PET study in nonhuman primates found uptake of [^11C]TZ61-84 (FIG. 3C).
Another PET study of [^18F]TZ80-156 and [^18F]TZ83-41 in nonhuman primates also found uptake (FIG. 4A).
A further PET study also found uptake of several additional compounds, including [^18F]TZ80-156 and [^18F]TZ83-41 (FIG. 4B).

“Also recorded” adds a separate entry of the source. A value given as a limit tells only on which side of the number the result lay.

Sequence of AD brain tissue (P05067 whole entry): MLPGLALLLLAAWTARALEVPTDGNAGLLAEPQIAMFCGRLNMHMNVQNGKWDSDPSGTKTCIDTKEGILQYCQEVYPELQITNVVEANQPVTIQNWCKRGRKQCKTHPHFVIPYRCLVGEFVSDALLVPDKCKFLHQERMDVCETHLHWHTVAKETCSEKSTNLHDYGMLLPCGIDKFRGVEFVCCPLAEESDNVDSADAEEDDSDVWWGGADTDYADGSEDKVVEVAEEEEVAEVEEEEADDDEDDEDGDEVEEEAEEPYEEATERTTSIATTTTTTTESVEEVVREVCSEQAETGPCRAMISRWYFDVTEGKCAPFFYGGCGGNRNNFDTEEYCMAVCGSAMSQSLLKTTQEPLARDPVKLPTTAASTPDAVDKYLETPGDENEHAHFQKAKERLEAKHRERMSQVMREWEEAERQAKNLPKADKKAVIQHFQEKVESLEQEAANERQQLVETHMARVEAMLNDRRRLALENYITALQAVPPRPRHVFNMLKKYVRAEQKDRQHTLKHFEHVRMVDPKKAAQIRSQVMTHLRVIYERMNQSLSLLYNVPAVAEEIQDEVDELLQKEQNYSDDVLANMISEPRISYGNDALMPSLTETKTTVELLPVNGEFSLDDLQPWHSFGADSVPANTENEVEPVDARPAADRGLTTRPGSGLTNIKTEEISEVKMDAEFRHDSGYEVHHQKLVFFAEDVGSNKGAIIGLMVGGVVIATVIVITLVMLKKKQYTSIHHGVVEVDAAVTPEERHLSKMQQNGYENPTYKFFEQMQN

On to `COc1ccc(Nc2ccc3cc(O)ccc3n2)cn1` [TZ61-23], for which, in series [1], the Ki was determined as 1.56 nM and the “max % inh_site9” value turned out to be 20%. Moreover, in series [2], the affinity corresponds to a Ki of 36 ± 37 nM and the “max % Inh_PiB” value was 30%.

`COc1ccc(Nc2ccc3cc(OC/C=C/I)ccc3n2)cn1` [TZ61-84]: in series [1], the Ki was 21.5 ± 34 nM and the “max % inh_site9” value is reported as 100%. Further, in series [2], the Ki was determined as 13.2 ± 17.2 nM and the “max % Inh_PiB” value amounted to 90%.

`COc1ccc(Nc2nc3ccccc3cc2N)cn1` [TZ64-73]: in series [1], the Ki amounted to 4.6 nM and the “max % inh_site9” value came to 20%. Besides, in series [2], the Ki came out at 6.6 ± 2.7 nM and the “max % Inh_PiB” value turned out to be 30%.

Turning to `COc1ccc(Nc2ccc3ccc(N)cc3n2)cn1` [TZ64-87], in series [1], the Ki is 3.07 nM and the “max % inh_site9” value was 50%. In addition, in series [2], the inhibition constant Ki is 36 ± 30 nM and the “max % Inh_PiB” value came out at 30%.

Consider `COc1ccc2nc(Nc3ccc(C=O)o3)ccc2c1` [TZ64-91], for which, in series [1], the Ki was found to be 1.4 nM and the “max % inh_site9” value is reported as 70%. For the same compound, in series [2], the inhibition constant Ki came out at 53 ± 34 nM and the “max % Inh_PiB” value came to 50%.

Turning to `COc1ccc(Nc2ccc3cc(Br)ccc3n2)cn1` [TZ64-105], in series [1], the Ki amounted to 18.7 nM and the “max % inh_site9” value is listed as 50%. This compound gave a Ki in series [2] of over 1000 nM.

Regarding `CCc1ccc(Nc2ccc3cc(OCCN4CCCCC4)ccc3n2)cn1` [TZ80-30], in series [1], the Ki amounted to 14.3 ± 25.4 nM and the “max % inh_site9” value was 100%. In series [2], the Ki is 158 ± 36 nM and the “max % Inh_PiB” value is 80%.

As to `COc1ccc(Nc2ccc3cc(OC(F)F)ccc3n2)cn1` [TZ80-37], in series [1], the Ki worked out at 22.9 ± 28.2 nM and the “max % inh_site9” value is listed as 60%. In series [2], the Ki turned out to be 99 ± 90 nM and the “max % Inh_PiB” value turned out to be 70%.

In the case of `COc1ccc(Nc2ccc3cc(OCc4ccncc4)ccc3n2)cn1` [TZ80-42], in series [1], the Ki is 16.6 ± 22.6 nM and the “max % inh_site9” value was 70%. In addition, in series [2], the Ki was 72 ± 56 nM and the “max % Inh_PiB” value worked out at 60%.

As for `COc1ccc(Nc2ccc3cc(OCCF)ccc3n2)cn1.Cl` [TZ80-55], the Ki was 26.1 nM in series [1] and over 1000 nM in series [2]. The “max % inh_site9” value in series [1] is 70%.

Regarding `COc1ccc2nc(Nc3ccnc(OC)c3)ccc2c1.Cl` [TZ80-59-B], in series [1], the Ki worked out at 17.9 ± 31.7 nM and the “max % inh_site9” value is given as 70%. Also, in series [2], the Ki is 108 ± 73 nM and the “max % Inh_PiB” value came out at 100%.

For the compound `COc1ccc(Nc2ccc3cc(OCc4cccnc4)ccc3n2)cn1.Cl` [TZ80-66-B], in series [1], the Ki turned out to be 30.4 ± 42.1 nM and the “max % inh_site9” value came out at 70%. For the same compound, in series [2], the Ki came out at 25.2 ± 21.7 nM and the “max % Inh_PiB” value is listed as 80%.

With `COc1cccc(COc2ccc3nc(Nc4ccc(OC)nc4)ccc3c2)c1` [TZ80-77], in series [1], the Ki was 32.8 ± 43.8 nM and the “max % inh_site9” value was determined as 100%. In series [2], the Ki came to 15 ± 23.5 nM and the “max % Inh_PiB” value is 100%.

Take `COc1ccc2nc(Nc3nc4ccc(N(C)C)cc4s3)ccc2c1` [TZ80-83]: in series [1], the Ki turned out to be 24.1 ± 39.7 nM and the “max % inh_site9” value came out at 100%. Moreover, in series [2], the affinity, expressed as Ki, was 50 ± 36 nM and the “max % Inh_PiB” value was determined as 80%.

Take `CSc1ccc(Nc2ccc3cc(OC/C=C/I)ccc3n2)cn1` [TZ80-106]: in series [1], the Ki is 15 ± 12.4 nM and the “max % inh_site9” value is 100%. The compound further yielded an inhibition constant Ki in series [2] of over 1000 nM.

`COc1ccc(Nc2ccc3cc(OC/C=C/CF)ccc3n2)cn1` [TZ80-156]: in series [1], the Ki was determined as 14.9 ± 19.1 nM and the “max % inh_site9” value was 100%. The compound further registered a Ki in series [2] of over 1000 nM.

On to `CC(C)Oc1ccc(Nc2ccc3cc(OCCF)ccc3n2)cn1` [TZ83-39], for which, in series [1], the Ki amounted to 30.1 nM and the “max % inh_site9” value worked out at 60%. Besides, in series [2], the affinity, expressed as Ki, was 142 ± 103 nM and the “max % Inh_PiB” value worked out at 20%.

Take `CCOc1ccc(Nc2ccc3cc(OCCF)ccc3n2)cn1.Cl` [TZ83-40]: in series [1], the Ki turned out to be 13.3 ± 26.1 nM and the “max % inh_site9” value came to 60%. In series [2], the Ki amounted to 354 ± 407 nM and the “max % Inh_PiB” value came to 40%.

`CCCOc1ccc(Nc2ccc3cc(OCCF)ccc3n2)cn1` [TZ83-41]: in series [1], the Ki turned out to be 12.5 nM and the “max % inh_site9” value stood at 60%. In series [2], the Ki turned out to be 362 ± 372 nM and the “max % Inh_PiB” value is recorded as 40%.

As for `COc1ccc2nc(Nc3cc(-c4ccccc4)n[nH]3)ccc2c1` [TZ88-5], in series [1], the Ki is 55.6 nM and the “max % inh_site9” value is given as 40%. In series [2], affinity was put at a Ki of 7.1 ± 10.5 nM and the “max % Inh_PiB” value is on record as 100%.

Take `COc1ccc2c(c1)CCC(Nc1cc(C)n[nH]1)=N2` [TZ88-7]: the “Ki (nM), in a-syn fibrils v.s. [3H]BF2846” value (shortened to “Ki (nM)”) in series [1] is on record as “None”. Further, in series [2], the affinity corresponds to a Ki of 90 ± 155 nM and the “max % Inh_PiB” value was 90%.

As for `COc1ccc2nc(Nc3ccc(-n4cccn4)nc3)ccc2c1` [TZ88-11], the “Ki (nM)” value in series [1] is “None”. In series [2], the affinity, expressed as Ki, was 46 ± 78 nM and the “max % Inh_PiB” value is recorded as 70%.

Take `COc1ccc2nc(Nc3ccc(N4CCOCC4)nc3)ccc2c1` [TZ88-18]: the “Ki (nM)” value in series [1] is “None”. Further, in series [2], the inhibition constant (Ki) came out at 1.6 ± 0.6 nM and the “max % Inh_PiB” value is listed as 100%.

With `COc1ccc2nc(Nc3ccc4cn[nH]c4c3)ccc2c1` [TZ88-21], in series [1], the “Ki (nM)” value is given as “None”. In series [2], the affinity corresponds to a Ki of 5.8 ± 4.3 nM and the “max % Inh_PiB” value is reported as 100%.

As to `COc1ccc2nc(Nc3ccc(NC(C)=O)nc3)ccc2c1` [TZ88-27], in series [1], the “Ki (nM)” value is given as “None”. In series [2], this compound came in with an inhibition constant (Ki) of over 1000 nM.

Consider `COc1ccc(Nc2ccc3cc(OCCF)ccc3n2)cn1` [TZ90-3], for which, in series [1], the Ki is 34 ± 75.3 nM. For the same compound, in series [2], the affinity, expressed as Ki, was 10.8 ± 8.3 nM and the “max % Inh_PiB” value amounted to 100%.

As for `COc1ccc2cc(Nc3ccc(OC)nc3)ncc2c1` [TZ90-4], in series [1], the Ki was determined as 46.2 ± 39.2 nM and the “max % inh_site9” value is “Shallow”. Further, in series [2], the affinity corresponds to a Ki of 3.1 ± 2.3 nM and the “max % Inh_PiB” value is 100%.

For the compound `COc1ccc(Nc2ccc3cc(OC)ccc3n2)cc1` [TZ90-8], the “max % inh_site9” value in series [1] was “Shallow”. In addition, in series [2], the Ki stood at 2 ± 2.6 nM and the “max % Inh_PiB” value came out at 100%.

In the case of `COc1ccc2nc(/C=C/c3nc4ccc(OC)cc4s3)ccc2c1` [TZ90-21], the Ki is 129 ± 77 nM in series [1] and 0.19 nM in series [2]. In series [2], the “max % Inh_PiB” value is listed as 30%.

In the case of `COc1ccc(Nc2ccc3cc(OC/C=C/C[18F])ccc3n2)cn1` [[^18F]TZ80-156], the Kd in series [3] came to 35 nM. For the same compound, in series [4], the “binding to Alzheimer's disease brain tissue homogenate” value is reported as “little to no binding”. The “crossing of the blood brain barrier” value in series [5] (NHP) was “crossed the blood brain barrier”. Also, in series [5] (NHP brain, microPET, intravenous), the “brain standardized uptake value (SUV) maximum” value is reported as about 2.0. Besides, the “washout from the NHP brain” value in series [5] (microPET) is given as “favorable washout rate; also recorded: favorable washout kinetics”. The bone uptake is reported as 0.45 in series [6] (5 min), 2.18 in series [6] (30 min) and 3.09 in series [6] (120 min). Further, the values for the brain uptake in series [6] (5 min), in series [6] (30 min) and in series [6] (60 min) were 0.86 % ID/gram, 0.25 % ID/gram and 0.16 % ID/gram, respectively. The defluorination result in series [6] (judged from bone uptake) is recorded as “Significant defluorination”. Moreover, the “brain uptake in PET study” value in series [7] is listed as “found uptake”.

By Ki is commonly meant the dissociation constant of the complex between target and ligand, obtained from inhibition or displacement.
